Values joined by “and” are separate entries in the source; they are usually repeats but may differ in a detail not shown here. Equal values may be shown once.
How the values were obtained:
Format in all cases: cell-based
[1] = tested on: Serratia marcescens; assay: Control plate of treated cells (colonies); settings: 10^6 cells
[2] = tested on: Pseudomonas aeruginosa; assay: Control plate of treated cells (colonies); settings: 10^6 cells
[3] = tested on: Escherichia coli; assay: pre-rRNA RT-PCR viability assay (preservative efficacy testing)
Description: (§1) The specific systems for E. coli, B. subtilis and S. marcescens are designed on the 3′ end of the 16S rRNA transcript. The three systems are species-specific. In these examples, the reverse primer hybridizes on the pre-rRNA region and the forward primer and probe in the mature rRNA region. The amplification will therefore be effective only if pre-rRNAs are present in the cells. FIG. 2 illustrates E. coli, B. subtilis and S. marcescens pre-rRNA-specific systems designed in the 3′ end of the 16S pre-rRNA for use with RT-PCR (forward primer, reverse primer, and forward probe).
(§2) Assays such as those disclosed herein, and assays developed under the guidelines of the provided examples, can be used in Formulation Screening and/or Preservative Efficacy Testing. An exemplary protocol is as follows: non-treated (or viable) and preservative-treated cells are analyzed in parallel with the same procedure and the same reagents: • Cells are calibrated to an expected density (CFU/ml) and collected by centrifugation on a filter membrane. • Two milliliters of RNA Booster (nutrients) are applied to the membrane of the filtration unit and these are incubated two hours for bacteria and four hours for fungi at 35° C.±2° C. (or appropriate temperature). • After incubation, the filtration units are centrifuged to remove the RNA Booster and 1.5 milliliters of lysis buffer are added to each membrane. • Cell lysates are recovered manually by pipetting and transferred into a lysis tube for a mechanical lysis process. • Lysate is then transferred in a sample prep tube. • RNA is extracted and purified using a known nucleic acid isolation method (i.e., RNA magnetic beads, silica resin). • DNA is removed by DNAse treatment to ensure predominantly an RNA target. • Eluted RNA is amplified by RT-PCR. The master mix used for the RT-PCR contains all reagents needed for the RT-PCR including specific primers and probe targeting the pre-rRNA or EF-3 mRNA sequences.
(§3) The referenced guidelines followed for this assay are the European Pharmacopoeia (EP)—Chapter 5.1.3 <<Efficacy of Antimicrobial Preservation>> and the United States Pharmacopeia (USP)—Chapter 51 <<Antimicrobial Effectiveness Testing>>. The value obtained by RT-PCR for the non-treated cells is compared to the value obtained for the treated cells. As used herein Ct stands for threshold cycle; i.e., the intersection between an amplification curve and a threshold line. According to the EP requirements, in a positive result as disclosed herein the difference of the Ct values is at least 3 logs, which corresponds to a ΔCt≧10 for bacteria and at least 2 logs, which corresponds to a ΔCt≧6.6 for fungi, after one day (24 hours) and seven days, respectively, for bacteria and fungi, of preservative treatment. USP requires data analysis after seven days and fourteen days for bacteria and fungi, respectively.
(§4) Preservative treatments were evaluated at high cells concentrations (10^6 and 10^5 cells per assay) that are commonly used for formulation screening. Five replicates at each cell concentration were analyzed. The Ct value corresponds to the RT-PCR cycle for which the level of fluorescence is outside the fluorescence background. The method compares Ct values for non-treated and treated cells and is expressed as the ΔCt.
(§5) The tables set forth below summarize the Ct values obtained for six bacteria and two fungi using six treatments: Heat, Isopropanol, Preservatives BAC, Poly-Q and IPBC and a commercial contact lens solution. Ct values obtained for non-treated cells (viable) are compared to Ct values obtained for treated cells. The ΔCt calculated is reported and must be ≧10 to meet the specification of 3 logs reduction for bacteria and must be ≧6.6 to meet the specification of 2 logs reduction for fungi. All assays are performed on the BD Max6 instrument from Becton Dickinson. Data are obtained by multiple operators on different days.

[4] = tested on: Serratia marcescens; assay: as above
Description: as §1, §2, §3, §4, §5

[5] = tested on: Staphylococcus aureus; assay: as above
Description: (§6) The specific systems for S. aureus, P. aeruginosa and S. epidermidis are designed on the 5′ end of the 23S rRNA. The three systems are species-specific. The forward primer hybridizes in the pre-rRNA region and the reverse primer and the forward probe in the mature rRNA region. The amplification is thus effective only if pre-rRNAs are present in the cells. FIG. 3 illustrates S. aureus, P. aeruginosa and S. epidermidis pre-rRNA-specific systems designed in the 5′ end of the 23S pre-rRNA for use with RT-PCR (forward primer, reverse primer, and forward probe).
as §2, §3, §4, §5

[6] = tested on: Pseudomonas aeruginosa; assay: as above
Description: as §6, §2, §3, §4, §5

[7] = tested on: Staphylococcus aureus; assay: Control plate of treated cells (colonies); settings: 10^6 cells
[8] = tested on: Escherichia coli; assay: Control plate of treated cells (colonies); settings: 10^6 cells
[9] = tested on: Candida albicans; assay: EF-3 mRNA RT-PCR viability assay (preservative efficacy testing); settings: 10^5 cells
Description: The specific system for C. albicans is designed on the mRNA of the EF-3 gene. This system is species-specific. The forward primer, the forward probe and the reverse primer hybridize in the internal sequence of the mRNA of the EF-3 gene. The amplification is thus effective only if the EF-3 mRNAs are present in the cells. FIG. 5 illustrates C. albicans EF-3 mRNA specific system designed in the internal sequence of the EF-3 mRNA for use with RT-PCR (forward primer, reverse primer, and forward probe).
as §2, §3, §4, §5

[10] = tested on: Aspergillus brasiliensis; assay: Control plate of treated cells (colonies); settings: from day 1 to day 7 at room temperature (day not specified); 10^6 cells
[11] = tested on: Aspergillus brasiliensis; assay: pre-rRNA RT-PCR viability assay (preservative efficacy testing); settings: 10^6 cells
Description: The specific system for A. brasiliensis is designed on the 5′ end of the 5.8S rRNA. This system is species-specific. The forward primer hybridizes in the pre-rRNA region and the reverse primer and the forward probe in the mature rRNA region. The amplification is thus effective only if pre-rRNAs are present in the cells. FIG. 4 illustrates A. brasiliensis pre-rRNA-specific systems designed in the 5′ end of the 5.8S pre-rRNA for use with RT-PCR (forward primer, reverse primer, and forward probe).
as §2, §3, §4, §5

[12] = tested on: Candida albicans; assay: Control plate of treated cells (colonies); settings: from day 1 to day 14 at room temperature (day not specified); 10^5 cells
[13] = 1 H at room temperature, 10^5 cells
[14] = 1 H at room temperature, 10^6 cells
[15] = 24 H at room temperature, 10^5 cells
[16] = 24 H at room temperature, 10^6 cells

## CC(C)O [Isopropanol]
[1]; 1 H at room temperature
  Colonies on control plate of treated cells: NC = Negative Control - Control plate of treated cells (10^6 cells) shows no colony on plate.
[2]; 1 H at room temperature
  Colonies on control plate of treated cells: NC = Negative Control - Control plate of treated cells (10^6 cells) shows no colony on plate.
[3]; [13]
  Ct Treated: 33.02 and 33.36 and 32.52 and 31.38 and 31.93
  Mean Ct (Treated): 32.44
  Δ Ct Viable − Dead: 17.56
[3]; [14]
  Ct Treated: 32.91 and 32.51 and 32.31 and 32.98 and 33.93
  Mean Ct (Treated): 32.93
  Δ Ct Viable − Dead: 21.00
[4]; [13]
  Ct Treated: 29.10 and 30.70 and 31.00 and 29.90 and 30.30
  Mean Ct (Treated): 30.20
  Δ Ct Viable − Dead: 13.20
[4]; [14]
  Ct Treated: 26.90 and 26.20 and 25.90 and 25.40 and 25.50
  Mean Ct (Treated): 25.98
  Δ Ct Viable − Dead: 13.18
[5]; [13]
  Ct Treated: 29.99 and 29.43 and 29.12 and 29.97 and 29.89
  Mean Ct (Treated): 29.68
  Δ Ct Viable − Dead: 12.80
[5]; [14]
  Ct Treated: 26.32 and 26.40 and 25.27 and 24.94 and 26.57
  Mean Ct (Treated): 25.90
  Δ Ct Viable − Dead: 13.09
[6]; [13]
  Ct Treated: 34.62 and 34.83 and 34.29 and 33.99 and 38.81
  Mean Ct (Treated): 35.31
  Δ Ct Viable − Dead: 10.99
[6]; [14]
  Ct Treated: 34.59 and 33.28 and 33.21 and 34.18 and 33.26
  Mean Ct (Treated): 33.70
  Δ Ct Viable − Dead: 13.45
[7]; 1 H at room temperature
  Colonies on control plate of treated cells: NC = Negative Control - Control plate of treated cells (10^6 cells) shows no colony on plate.
[8]; 1 H at room temperature
  Colonies on control plate of treated cells: NC = Negative Control - Control plate of treated cells (10^6 cells) shows no colony on plate.

## Benzalkonium Chloride [BAC]
[1]; 24 H at room temperature
  Colonies on control plate of treated cells: NC = Negative Control - Control plate of treated cells (10^6 cells) shows no colony on plate.
[9]; Day 1 at room temperature
  Ct Treated: 33.70 and 32.70 and 31.60 and 29.30
  Mean Ct (Treated): 32.00
  Δ Ct Viable − Dead: 13.90
[9]; Day 7 at room temperature
  Mean Ct (Treated): 33.67
  Δ Ct Viable − Dead: 15.57
[9]; Day 14 at room temperature
  Mean Ct (Treated): 32.23
  Δ Ct Viable − Dead: 14.13
[2]; 24 H at room temperature
  Colonies on control plate of treated cells: NC = Negative Control - Control plate of treated cells (10^6 cells) shows no colony on plate.
[10]
  Colonies on control plate of treated cells: NC = Negative Control - Control plate of treated cells (10^6 cells) shows no colony on plate.
[3]; [15]
  Ct Treated: 32.65 and 31.54 and 31.77 and 32.76 and 32.45
  Mean Ct (Treated): 32.23
  Δ Ct Viable − Dead: 18.57
[3]; [16]
  Ct Treated: 32.61 and 34.26 and 33.74 and 30.48 and 33.39
  Mean Ct (Treated): 32.90
  Δ Ct Viable − Dead: 21.33
[4]; [15]
  Mean Ct (Treated): 36.13
  Δ Ct Viable − Dead: 20.09
[4]; [16]
  Ct Treated: 34.20 and 34.30 and 32.80 and 35.50
  Mean Ct (Treated): 34.20
  Δ Ct Viable − Dead: 22.28
[11]; Day 1 at room temperature
  Ct Treated: 21.80 and 21.60 and 22.10
  Mean Ct (Treated): 21.83
  Δ Ct Viable − Dead: 11.63
[11]; Day 2 at room temperature
  Ct Treated: 22.40 and 21.90 and 23.90
  Mean Ct (Treated): 22.73
  Δ Ct Viable − Dead: 12.53
[11]; Day 7 at room temperature
  Ct Treated: 22.60 and 24.70 and 22.50
  Mean Ct (Treated): 23.27
  Δ Ct Viable − Dead: 13.07
[5]; [15]
  Ct Treated: 29.75 and 30.23 and 29.39 and 29.28 and 30.03
  Mean Ct (Treated): 29.73
  Δ Ct Viable − Dead: 12.29
[5]; [16]
  Ct Treated: 26.23 and 27.50 and 26.54 and 26.71 and 26.64
  Mean Ct (Treated): 26.72
  Δ Ct Viable − Dead: 12.65
[6]; [15]
  Mean Ct (Treated): 31.92
  Δ Ct Viable − Dead: 12.39
[6]; [16]
  Mean Ct (Treated): 30.72
  Δ Ct Viable − Dead: 14.53
[7]; 24 H at room temperature
  Colonies on control plate of treated cells: NC = Negative Control - Control plate of treated cells (10^6 cells) shows no colony on plate.
[12]
  Colonies on control plate of treated cells: NC = Negative Control - Control plate of treated cells (10^5 cells) shows no colony on plate.
[8]; 24 H at room temperature
  Colonies on control plate of treated cells: NC = Negative Control - Control plate of treated cells (10^6 cells) shows no colony on plate.
